# Tests used:
# [1] = molecular target: T1, RD21 (Arabidopsis thaliana, UniProt P43297); assay: competition of DCG-04 labelling; protection of rubisco from degradation; assay type: biochemical; settings: covalent; 20 µM E-64 preincubation, 0.2 µM DCG-04, pH 6, 1 mM DTT; leaf extract
# T1 construct: gene RD21A; full-length preproprotein agroinfiltrated in Nicotiana benthamiana, two (pRH628) or three (pRH629) extra C-terminal Ser; crude leaf extract; processed in planta to iRD21/mRD21; mRD21 N-termini DELPE, LPE, GDELPE; also endogenous in Arabidopsis leaf extract
# T1 sequence (P43297 137-462): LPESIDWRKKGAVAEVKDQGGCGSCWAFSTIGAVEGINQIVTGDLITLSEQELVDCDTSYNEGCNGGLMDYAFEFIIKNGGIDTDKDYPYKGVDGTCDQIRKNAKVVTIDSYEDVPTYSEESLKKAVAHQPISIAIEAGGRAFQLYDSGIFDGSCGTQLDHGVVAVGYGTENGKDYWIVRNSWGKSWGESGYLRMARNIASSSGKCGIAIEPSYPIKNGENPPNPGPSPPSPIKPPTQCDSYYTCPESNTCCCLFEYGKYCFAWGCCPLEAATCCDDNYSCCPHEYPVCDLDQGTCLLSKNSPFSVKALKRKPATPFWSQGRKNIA
# [2] = molecular target: T2, RD21 (Arabidopsis thaliana, UniProt P43297, C161A); assay: competition of DCG-04 labelling; assay type: biochemical; settings: 20 µM E-64 preincubation, 0.2 µM DCG-04, pH 6; catalytic Cys absent; leaf extract
# T2 construct: gene RD21A; full-length preproprotein agroinfiltrated in Nicotiana benthamiana, two (pRH628) or three (pRH629) extra C-terminal Ser; crude leaf extract; processed in planta to iRD21/mRD21; mRD21 N-termini DELPE, LPE, GDELPE; also endogenous in Arabidopsis leaf extract
# T2 sequence (P43297 137-462 C161A): as the sequence (P43297 137-462) above, with C25A counted along it
smiles,measurement,setting,value
CC(C)C[C@H](NC(=O)[C@H]1O[C@@H]1C(=O)O)C(=O)NCCCCNC(=N)N [E-64],competition of DCG-04 labelling; protection of rubisco from degradation,[1],the reaction with DCG-04 can be prevented by preincubation with E-64
same,competition of DCG-04 labelling,[2],"a weak, E-64-competable biotinylation occurs of iRD21"

# Reference: publication PMC3292552, “Post-Translational Regulation and Trafficking of the Granulin-Containing Protease RD21 of Arabidopsis thaliana” (PLoS ONE, 2012)
